US20050130968A1, “Fungicidal 4-(2-aminopyridin-4-yl)-N-phenyl-1,3,5-triazin-2-amine derivatives” (priority 2003, published 2005)

Experiments:
Septoria tritici = test: Speckled Leaf Blotch of Wheat 1-day protectant test (SEPTTR); format: in vivo; details: Zymoseptoria tritici, topical, 24 h; one-day protectant test, 200 ppm application rate, wheat plants (variety Monon); read-out: SEPTTR control of disease
Method: The technical compounds were formulated at 200 ppm in 10 vol. acetone plus 90 vol. Triton X water (deionized water 99.99 wt. % +0.01 wt. Triton X100), giving a “formulated test compound.” The compounds were tested for ability to control plant diseases at the whole plant level in a 1-day protectant test (IDP). Formulated test compounds were applied to plants using a turn table sprayer fitted with two opposing air atomization nozzles which delivered approximately 1500 L/ha of spray volume. Plants were inoculated with spores of the fungus the next day, then incubated in an environment conducive to disease development. Disease severity was evaluated 4 to 19 days later, depending on the speed of disease development. Speckled Leaf Blotch of Wheat (Mycosphaerella graminicola=Septoria tritici; Bayer code […]): Wheat plants (variety Monon) were grown from seed in a greenhouse in 50% pasteurized soil/50% soil-less mix until the first true leaf was fully expanded, with 3-8 seedlings per pot. These plants were sprayed until wet with the formulated test compound at a rate of 200 ppm. On the following day, the leaves were inoculated with an aqueous spore suspension of Septoria tritici and the plants were kept in high humidity (one day in a dark dew chamber followed by four to seven days in a lighted dew chamber) to permit spores to germinate and infect the leaf. The plants were then transferred to a greenhouse until disease developed on untreated control plants. The following table presents the activity of typical compounds of the present invention when evaluated in these experiments. The effectiveness of the test compounds in controlling disease was determined by assessing the severity of disease on treated plants, then converting the severity to percent control based on the level of disease on untreated, inoculated plants.

Leptosphaeria nodorum = test: Glume Blotch of Wheat 1-day protectant test (LEPTNO); format: in vivo; details: Parastagonospora nodorum, topical, 24 h; one-day protectant test, 200 ppm application rate, wheat plants (variety Yuma); read-out: LEPTINO control of disease
Method: The technical compounds were formulated at 200 ppm in 10 vol. acetone plus 90 vol. Triton X water (deionized water 99.99 wt. % +0.01 wt. Triton X100), giving a “formulated test compound.” The compounds were tested for ability to control plant diseases at the whole plant level in a 1-day protectant test (IDP). Formulated test compounds were applied to plants using a turn table sprayer fitted with two opposing air atomization nozzles which delivered approximately 1500 L/ha of spray volume. Plants were inoculated with spores of the fungus the next day, then incubated in an environment conducive to disease development. Disease severity was evaluated 4 to 19 days later, depending on the speed of disease development. Glume Blotch of Wheat (causal agent Leptosphaeria nodorum=Stagnospora nodorum; Bayer code […]): Wheat plants (variety Yuma) were grown from seed in a 50% pasteurized soil/50% soil-less mix until the seedlings had fully expanded first leaf. Each pot contains 3-20 seedlings. These plants were sprayed until wet with the formulated test compound at a rate of 200 ppm. On the following day, the leaves were inoculated with an aqueous spore suspension of Leptosphaeria nodorum and the plants were kept in high humidity (one day in a dark dew chamber followed by four to seven days in a lighted dew chamber) to permit spores to germinate and infect the leaf. The plants were then transferred to a greenhouse until disease developed on untreated control plants. The following table presents the activity of typical compounds of the present invention when evaluated in these experiments. The effectiveness of the test compounds in controlling disease was determined by assessing the severity of disease on treated plants, then converting the severity to percent control based on the level of disease on untreated, inoculated plants.

Cochliobolus sativus = test: Spot Blotch of Wheat 1-day protectant test (COCHSA); format: in vivo; details: Bipolaris sorokiniana, 24 h; one-day protectant test, 200 ppm application rate, wheat plants (variety Yuma); read-out: COCHSA control of disease
Method: The technical compounds were formulated at 200 ppm in 10 vol. acetone plus 90 vol. Triton X water (deionized water 99.99 wt. % +0.01 wt. Triton X100), giving a “formulated test compound.” The compounds were tested for ability to control plant diseases at the whole plant level in a 1-day protectant test (IDP). Formulated test compounds were applied to plants using a turn table sprayer fitted with two opposing air atomization nozzles which delivered approximately 1500 L/ha of spray volume. Plants were inoculated with spores of the fungus the next day, then incubated in an environment conducive to disease development. Disease severity was evaluated 4 to 19 days later, depending on the speed of disease development. […] Each pot contained 3-8 seedlings. These plants were sprayed until wet with the formulated test compound at a rate of 200 ppm. On the following day, the leaves were inoculated with an aqueous spore suspension of Cochliobolus sativus and the plants were kept in high humidity for one to two days to permit spores to germinate and infect the leaf. The plants were then transferred to a greenhouse until disease developed on untreated control plants. The following table presents the activity of typical compounds of the present invention when evaluated in these experiments. The effectiveness of the test compounds in controlling disease was determined by assessing the severity of disease on treated plants, then converting the severity to percent control based on the level of disease on untreated, inoculated plants.

Puccinia triticina = test: Leaf Rust of Wheat 1-day protectant test (PUCCRT); format: in vivo; details: topical, 24 h, one-day protectant test, 200 ppm application rate, wheat plants (variety Yuma), read-out: PUCCRT control of disease
Method: The technical compounds were formulated at 200 ppm in 10 vol. acetone plus 90 vol. Triton X water (deionized water 99.99 wt. % +0.01 wt. Triton X100), giving a “formulated test compound.” The compounds were tested for ability to control plant diseases at the whole plant level in a 1-day protectant test (IDP). Formulated test compounds were applied to plants using a turn table sprayer fitted with two opposing air atomization nozzles which delivered approximately 1500 L/ha of spray volume. Plants were inoculated with spores of the fungus the next day, then incubated in an environment conducive to disease development. Disease severity was evaluated 4 to 19 days later, depending on the speed of disease development. […] Each pot contained 3-8 seedlings. These plants were sprayed until wet with the formulated test compounds at a rate of 200 ppm. On the following day, the leaves were inoculated with an aqueous spore suspension of Puccinia triticina and the plants were kept in high humidity overnight to permit spores to germinate and infect the leaf. The plants were then transferred to a greenhouse until disease developed on untreated control plants. The following table presents the activity of typical compounds of the present invention when evaluated in these experiments. The effectiveness of the test compounds in controlling disease was determined by assessing the severity of disease on treated plants, then converting the severity to percent control based on the level of disease on untreated, inoculated plants.

Colletotricum lagenarium = test: Cucumber Anthracnose 1-day protectant test (COLLLA); format: in vivo; details: Cucumis sativus, topical, 24 h; one-day protectant test, 200 ppm application rate, cucumber plants (variety Bush Champion); read-out: COLLLA control of disease
Method: The technical compounds were formulated at 200 ppm in 10 vol. acetone plus 90 vol. Triton X water (deionized water 99.99 wt. % +0.01 wt. Triton X100), giving a “formulated test compound.” The compounds were tested for ability to control plant diseases at the whole plant level in a 1-day protectant test (IDP). Formulated test compounds were applied to plants using a turn table sprayer fitted with two opposing air atomization nozzles which delivered approximately 1500 L/ha of spray volume. Plants were inoculated with spores of the fungus the next day, then incubated in an environment conducive to disease development. Disease severity was evaluated 4 to 19 days later, depending on the speed of disease development. Cucumber Anthracnose (causal agent Colletotricum lagenarium; Bayer code COLLLA): Cucumber plants (variety Bush Champion) were grown from seed in a soilless peat-based potting mixture (Metromix) until the first true leaf was 20-80% expanded. Each pot contained 1 seedling. These plants were sprayed until wet with the formulated test compound at a rate of 200 ppm. On the following day, the leaves were inoculated with an aqueous spore suspension of Colletotricum lagenarium and the plants were kept in high humidity for one day to permit spores to germinate and infect the leaf. The plants were then transferred to a growth chamber until disease developed on untreated control plants. The following table presents the activity of typical compounds of the present invention when evaluated in these experiments. The effectiveness of the test compounds in controlling disease was determined by assessing the severity of disease on treated plants, then converting the severity to percent control based on the level of disease on untreated, inoculated plants.

Pyricularia oryzae = test: whole plant or invertebrate; format: in vivo; details: topical, 24 h, read-out: PYRIOR control of disease

COCC(C)Nc1cc(-c2ncnc(Nc3cccc(Cl)c3)n2)ccn1 (stereo not drawn) [Compound 1, N-(3-chlorophenyl)-4-{2-[(2-methoxy-1-methylethyl)amino]pyridin-4-yl}-1,3,5-triazin-2-amine]
melting point: 149 to 151 °C
pest or weed control at 200 ppm (Septoria tritici): 50 to 89%
pest or weed control at 200 ppm (Leptosphaeria nodorum): 90 to 100%
pest or weed control at 200 ppm (Cochliobolus sativus): 90 to 100%
pest or weed control at 200 ppm (Puccinia triticina): 90 to 100%
pest or weed control at 200 ppm (Colletotricum lagenarium): 90 to 100%
pest or weed control at 200 ppm (Pyricularia oryzae): 90 to 100%

COC[C@H](C)Nc1cc(-c2ncnc(Nc3cccc(Cl)c3)n2)ccn1 [Compound 2, N-(3-chlorophenyl)-4-(2-{[(1S)-2-methoxy-1-methylethyl]amino}pyridin-4-yl)-1,3,5-triazin-2-amine]
melting point: 152 to 156 °C
pest or weed control at 200 ppm (Septoria tritici): 90 to 100%
pest or weed control at 200 ppm (Leptosphaeria nodorum): 90 to 100%
pest or weed control at 200 ppm (Cochliobolus sativus): 90 to 100%
pest or weed control at 200 ppm (Puccinia triticina): 90 to 100%
pest or weed control at 200 ppm (Colletotricum lagenarium): 90 to 100%
pest or weed control at 200 ppm (Pyricularia oryzae): 90 to 100%

COCC(C)Nc1cc(-c2ncnc(Nc3ccccc3Cl)n2)ccn1 (stereo not drawn) [Compound 3, N-(2-chlorophenyl)-4-{2-[(2-methoxy-1-methylethyl)amino]pyridin-4-yl}-1,3,5-triazin-2-amine]
melting point: 139 to 140 °C
pest or weed control at 200 ppm (Septoria tritici): 21 to 49%
pest or weed control at 200 ppm (Leptosphaeria nodorum): 21 to 49%
pest or weed control at 200 ppm (Cochliobolus sativus): 90 to 100%
pest or weed control at 200 ppm (Puccinia triticina): 50 to 89%
pest or weed control at 200 ppm (Colletotricum lagenarium): < 20%
pest or weed control at 200 ppm (Pyricularia oryzae): 50 to 89%

COCC(C)Nc1cc(-c2ncnc(Nc3ccc(Cl)cc3)n2)ccn1 (stereo not drawn) [Compound 4, N-(4-chlorophenyl)-4-{2-[(2-methoxy-1-methylethyl)amino]pyridin-4-yl}-1,3,5-triazin-2-amine]
melting point: 198 to 200 °C
pest or weed control at 200 ppm (Septoria tritici): 50 to 89%
pest or weed control at 200 ppm (Leptosphaeria nodorum): 50 to 89%
pest or weed control at 200 ppm (Cochliobolus sativus): 50 to 89%
pest or weed control at 200 ppm (Puccinia triticina): 50 to 89%
pest or weed control at 200 ppm (Colletotricum lagenarium): < 20%
pest or weed control at 200 ppm (Pyricularia oryzae): < 20%

CC(C)(C)Nc1cc(-c2ncnc(Nc3cccc(Cl)c3)n2)ccn1 [Compound 5, 4-[2-(tert-butylamino)pyridin-4-yl]-N-(3-chlorophenyl)-1,3,5-triazin-2-amine]
pest or weed control at 200 ppm (Septoria tritici): 90 to 100%
pest or weed control at 200 ppm (Leptosphaeria nodorum): 50 to 89%
pest or weed control at 200 ppm (Cochliobolus sativus): 90 to 100%
pest or weed control at 200 ppm (Puccinia triticina): 90 to 100%
pest or weed control at 200 ppm (Colletotricum lagenarium): 50 to 89%
pest or weed control at 200 ppm (Pyricularia oryzae): 90 to 100%

CC(COCc1ccccc1)Nc1cc(-c2ncnc(Nc3cccc(Cl)c3)n2)ccn1 (stereo not drawn) [Compound 6, N-(3-chlorophenyl)-4-{2-[(2-(benzyloxy)-1-methylethyl)amino]pyridin-4-yl}-1,3,5-triazin-2-amine]
melting point: 79 to 80 °C
pest or weed control at 200 ppm (Septoria tritici): 90 to 100%
pest or weed control at 200 ppm (Leptosphaeria nodorum): 50 to 89%
pest or weed control at 200 ppm (Cochliobolus sativus): 50 to 89%
pest or weed control at 200 ppm (Puccinia triticina): 90 to 100%
pest or weed control at 200 ppm (Colletotricum lagenarium): < 20%
pest or weed control at 200 ppm (Pyricularia oryzae): < 20%

Clc1cccc(Nc2ncnc(-c3ccnc(N4CCCCC4)c3)n2)c1 [Compound 7, N-(3-chlorophenyl)-4-(2-piperidin-1-ylpyridin-4-yl)-1,3,5-triazin-2-amine]
melting point: 168 to 169 °C
pest or weed control at 200 ppm (Septoria tritici): 50 to 89%
pest or weed control at 200 ppm (Leptosphaeria nodorum): 50 to 89%
pest or weed control at 200 ppm (Cochliobolus sativus): 21 to 49%
pest or weed control at 200 ppm (Puccinia triticina): 21 to 49%
pest or weed control at 200 ppm (Colletotricum lagenarium): < 20%
pest or weed control at 200 ppm (Pyricularia oryzae): < 20%

Clc1ccc(Nc2ncnc(-c3ccnc(N4CCCCC4)c3)n2)cc1 [Compound 8, N-(4-chlorophenyl)-4-(2-piperidin-1-ylpyridin-4-yl)-1,3,5-triazin-2-amine]
pest or weed control at 200 ppm (Septoria tritici): 50 to 89%
pest or weed control at 200 ppm (Leptosphaeria nodorum): 50 to 89%
pest or weed control at 200 ppm (Cochliobolus sativus): < 20%
pest or weed control at 200 ppm (Puccinia triticina): < 20%
pest or weed control at 200 ppm (Colletotricum lagenarium): < 20%
pest or weed control at 200 ppm (Pyricularia oryzae): < 20%

CC1COC(=O)N1c1cc(-c2ncnc(Nc3cccc(Cl)c3)n2)ccn1 (stereo not drawn) [Compound 9]
pest or weed control at 200 ppm (Septoria tritici): 50 to 89%
pest or weed control at 200 ppm (Leptosphaeria nodorum): 50 to 89%
pest or weed control at 200 ppm (Cochliobolus sativus): 90 to 100%
pest or weed control at 200 ppm (Puccinia triticina): 90 to 100%
pest or weed control at 200 ppm (Colletotricum lagenarium): 21 to 49%
pest or weed control at 200 ppm (Pyricularia oryzae): 90 to 100%
